Results: the NIST ThermoML archive (doi:10.1021/je901043q)
Numbers after ± are expanded uncertainties.

Assay: xn = mol fraction of the nth substance listed
Conditions: 101 kPa, Liquid

CCCCn1cc[n+](C)c1.N#C[S-] [1-butyl-3-methylimidazolium thiocyanate] + CCCCCCCO
Conditions | mass density [kg/m3] | viscosity [mPa·s]
298.15 K, x1 = 0.0806 | 845.64 ± 0.42 | 7.319 ± 0.21
298.15 K, x1 = 0.14 | 864.24 ± 0.41 | 8.422 ± 0.24
298.15 K, x1 = 0.2203 | 888.14 ± 0.4 | 10.16 ± 0.29
298.15 K, x1 = 0.3006 | 910.91 ± 0.4 | 12.31 ± 0.34
298.15 K, x1 = 0.3997 | 937.73 ± 0.41 | 15.5 ± 0.42
298.15 K, x1 = 0.4903 | 960.98 ± 0.43 | 18.92 ± 0.51
298.15 K, x1 = 0.5703 | 980.45 ± 0.45 | 22.22 ± 0.6
298.15 K, x1 = 0.6949 | 1008.83 ± 0.54 | 28.65 ± 0.77
298.15 K, x1 = 0.7981 | 1031.04 ± 0.69 | 34.6 ± 0.93
298.15 K, x1 = 0.8852 | 1048.62 ± 0.83 | 39.81 ± 1.1
298.15 K, x1 = 0.9793 | 1066.13 ± 1 | 47.21 ± 1.3
298.15 K, x1 = 1 | 1069.79 ± 1 | 51.74 ± 0.55
308.15 K, x1 = 0.0806 | 838.75 ± 0.43 | 5.395 ± 0.17
308.15 K, x1 = 0.14 | 857.45 ± 0.41 | 6.213 ± 0.19
308.15 K, x1 = 0.2203 | 881.49 ± 0.4 | 7.479 ± 0.22
308.15 K, x1 = 0.3006 | 904.36 ± 0.4 | 9.061 ± 0.26
308.15 K, x1 = 0.3997 | 931.34 ± 0.41 | 11.31 ± 0.32
308.15 K, x1 = 0.4903 | 954.7 ± 0.43 | 13.59 ± 0.38
308.15 K, x1 = 0.5703 | 974.26 ± 0.45 | 15.73 ± 0.43
308.15 K, x1 = 0.6949 | 1002.79 ± 0.54 | 19.86 ± 0.54
308.15 K, x1 = 0.7981 | 1025.06 ± 0.68 | 23.67 ± 0.65
308.15 K, x1 = 0.8852 | 1042.69 ± 0.82 | 26.77 ± 0.74
308.15 K, x1 = 0.9793 | 1060.22 ± 1 | 31.2 ± 0.86
308.15 K, x1 = 1 | 1063.89 ± 1 | 34.87 ± 0.96
318.15 K, x1 = 0.0806 | 831.82 ± 0.43 | 4.085 ± 0.13
318.15 K, x1 = 0.14 | 850.63 ± 0.41 | 4.725 ± 0.15
318.15 K, x1 = 0.2203 | 874.82 ± 0.41 | 5.654 ± 0.17
318.15 K, x1 = 0.3006 | 897.84 ± 0.4 | 6.884 ± 0.2
318.15 K, x1 = 0.3997 | 924.97 ± 0.41 | 8.55 ± 0.25
318.15 K, x1 = 0.4903 | 948.46 ± 0.43 | 10.19 ± 0.29
318.15 K, x1 = 0.5703 | 968.12 ± 0.46 | 11.67 ± 0.33
318.15 K, x1 = 0.6949 | 996.76 ± 0.53 | 14.49 ± 0.4
318.15 K, x1 = 0.7981 | 1019.11 ± 0.67 | 17.02 ± 0.47
318.15 K, x1 = 0.8852 | 1036.79 ± 0.81 | 19.03 ± 0.53
318.15 K, x1 = 0.9793 | 1054.36 ± 0.98 | 21.9 ± 0.62
318.15 K, x1 = 1 | 1058.02 ± 1 | 24.19 ± 0.68
328.15 K, x1 = 0.0806 | 824.81 ± 0.44 | 3.166 ± 0.11
328.15 K, x1 = 0.14 | 843.79 ± 0.42 | 3.685 ± 0.12
328.15 K, x1 = 0.2203 | 868.14 ± 0.41 | 4.369 ± 0.14
328.15 K, x1 = 0.3006 | 891.32 ± 0.41 | 5.306 ± 0.16
328.15 K, x1 = 0.3997 | 918.62 ± 0.41 | 6.634 ± 0.2
328.15 K, x1 = 0.4903 | 942.26 ± 0.43 | 7.875 ± 0.23
328.15 K, x1 = 0.5703 | 962.02 ± 0.46 | 8.926 ± 0.26
328.15 K, x1 = 0.6949 | 990.79 ± 0.53 | 11.02 ± 0.32
328.15 K, x1 = 0.7981 | 1013.22 ± 0.66 | 12.79 ± 0.36
328.15 K, x1 = 0.8852 | 1030.94 ± 0.8 | 14.2 ± 0.4
328.15 K, x1 = 0.9793 | 1048.56 ± 0.97 | 16.16 ± 0.46
328.15 K, x1 = 1 | 1052.19 ± 1 | 16.7 ± 0.48
338.15 K, x1 = 0.0806 | 817.69 ± 0.44 | 2.508 ± 0.094
338.15 K, x1 = 0.14 | 836.85 ± 0.42 | 2.935 ± 0.1
338.15 K, x1 = 0.2203 | 861.43 ± 0.41 | 3.47 ± 0.12
338.15 K, x1 = 0.3006 | 884.79 ± 0.41 | 4.186 ± 0.14
338.15 K, x1 = 0.3997 | 912.28 ± 0.42 | 5.262 ± 0.16
338.15 K, x1 = 0.4903 | 936.05 ± 0.43 | 6.24 ± 0.19
338.15 K, x1 = 0.5703 | 955.92 ± 0.46 | 7.057 ± 0.21
338.15 K, x1 = 0.6949 | 984.85 ± 0.53 | 8.62 ± 0.25
338.15 K, x1 = 0.7981 | 1007.36 ± 0.65 | 9.943 ± 0.29
338.15 K, x1 = 0.8852 | 1025.11 ± 0.79 | 10.97 ± 0.32
338.15 K, x1 = 0.9793 | 1042.8 ± 0.96 | 12.38 ± 0.36
338.15 K, x1 = 1 | 1046.43 ± 0.98 | 12.73 ± 0.37
348.15 K, x1 = 0.0806 | 810.46 ± 0.45 | 2.022 ± 0.081
348.15 K, x1 = 0.14 | 829.85 ± 0.43 | 2.383 ± 0.09
348.15 K, x1 = 0.2203 | 854.69 ± 0.42 | 2.837 ± 0.1
348.15 K, x1 = 0.3006 | 878.24 ± 0.41 | 3.403 ± 0.12
348.15 K, x1 = 0.3997 | 905.95 ± 0.42 | 4.222 ± 0.14
348.15 K, x1 = 0.4903 | 929.89 ± 0.44 | 5.029 ± 0.16
348.15 K, x1 = 0.5703 | 949.88 ± 0.46 | 5.663 ± 0.17
348.15 K, x1 = 0.6949 | 978.95 ± 0.53 | 6.884 ± 0.21
348.15 K, x1 = 0.7981 | 1001.53 ± 0.64 | 7.93 ± 0.24
348.15 K, x1 = 0.8852 | 1019.34 ± 0.77 | 8.707 ± 0.26
348.15 K, x1 = 0.9793 | 1037.06 ± 0.94 | 9.802 ± 0.29
348.15 K, x1 = 1 | 1040.7 ± 0.97 | 9.98 ± 0.3
